Holding throughout (format): cell-based
The subject of one test is SW480 (colon cancer). The test can be described thus: Antiproliferative activity (CCK-8 cell viability), SW480. The following applies: Homo sapiens, 72 h, read-out: Antiproliferative activity in cancerous cells, SW480 (inhibition of cell growth); for inhibition at 3.3 µM: Compound concentration: 3.3 μM; for inhibition at 10 µM: Compound concentration: 10 μM; for inhibition at 30 µM: Compound concentration: 30 μM. The method in brief:
(§1)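 Cells were seeded at 2,000-5,000/well (HeLa in MEM, HepG2 and SW480 in DMEM, A549 in F-12K, all with 10% FBS) and treated with compound at 3.3, 10 or 30 μM for 72 h at 37° C. CCK-8 was added for 4 h, absorbance was read at 450 nm, and viability was expressed relative to DMSO-treated wells.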

The next test relates to HepG2 (liver cancer). The test can be described thus: Antiproliferative activity (CCK-8 cell viability), HepG2. The following applies: Homo sapiens, 72 h, read-out: Antiproliferative activity in cancerous cells, HepG2 (inhibition of cell growth); for inhibition at 3.3 µM: Compound concentration: 3.3 μM; for inhibition at 10 µM: Compound concentration: 10 μM; for inhibition at 30 µM: Compound concentration: 30 μM. The method in brief:
as §1

Test [1] deals with A431 (epidermoid carcinoma). The experiment in a line: Antiproliferative activity (CCK-8 cell viability), A431. The following applies: Homo sapiens, 72 h, read-out: Antiproliferative activity in cancerous cells, A431 (inhibition of cell growth); for inhibition at 3.3 µM: A-431, Compound concentration: 3.3 μM; for inhibition at 10 µM: A-431, Compound concentration: 10 μM; for inhibition at 30 µM: A-431, Compound concentration: 30 μM. The method in brief:
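Cell viability of compound-treated A431 cells was measured with a Cell Counting Kit-8. Each well received 10 μL of CCK-8 after 72 h of compound exposure, followed by 4 h incubation at 37° C. and a 450 nm plate-reader measurement. Percent viability was calculated relative to DMSO controls across replicates.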

Test [2] relates to MDA-MB-231 (breast cancer). The experiment in a line: Antiproliferative activity (CCK-8 cell viability), MDA-MB-231. The following applies: Homo sapiens, 72 h, read-out: Antiproliferative activity in cancerous cells, MDA-MB-231 (inhibition of cell growth); for inhibition at 3.3 µM: Compound concentration: 3.3 μM; for inhibition at 10 µM: Compound concentration: 10 μM; for inhibition at 30 µM: Compound concentration: 30 μM. The method in brief: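 In this CCK-8 viability assay, MDA-MB-231 cells maintained in Dulbecco's modified Eagle's medium containing 10% fetal bovine serum were placed in 96-well plates (2,000-5,000 cells/well) and treated with compound for 72 h at 37° C. A 4 h incubation with 10 μL CCK-8 followed, plates were read at 450 nm, and viability was expressed against DMSO vehicle wells across replicates.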

In another test the test system is HeLa (cervical cancer). The experiment in a line: Antiproliferative activity (CCK-8 cell viability), HeLa. The following applies: Homo sapiens, 72 h, read-out: Antiproliferative activity in cancerous cells, HELA (inhibition of cell growth); for inhibition at 3.3 µM: Compound concentration: 3.3 μM; for inhibition at 10 µM: Compound concentration: 10 μM; for inhibition at 30 µM: Compound concentration: 30 μM. The method in brief: as §1

The test system of test [3] is A549 (lung adenocarcinoma). The experiment in a line: Antiproliferative activity (CCK-8 cell viability), A549. The following applies: Homo sapiens, 72 h, read-out: Antiproliferative activity in cancerous cells, A549 (inhibition of cell growth); for inhibition at 3.3 µM: Compound concentration: 3.3 μM; for inhibition at 10 µM: Compound concentration: 10 μM; for inhibition at 30 µM: Compound concentration: 30 μM. The method in brief:
as §1

Test [4] deals with B16F10 (malignant melanoma). The test can be described thus: Antiproliferative activity (CCK-8 cell viability), B16F10. The following applies: Mus musculus, 72 h, read-out: Antiproliferative activity in cancerous cells, B16F10 (inhibition of cell growth); for inhibition at 3.3 µM: B16-F10, Compound concentration: 3.3 μM; for inhibition at 10 µM: B16-F10, Compound concentration: 10 μM; for inhibition at 30 µM: B16-F10, Compound concentration: 30 μM. The method in brief: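 Attached B16F10 cells in 96-well plates were incubated with compound at 37° C for 72 h, followed by 10 μL CCK-8 reagent per well and a further 4 h incubation. A multi-well plate reader measured absorbance at 450 nm. Percent viability across replicates was calculated against DMSO vehicle-treated cells.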

The term inhibition denotes how much of the control response was suppressed. Take `CC1=C(CC(=O)O)c2cc(F)ccc2/C1=C/c1ccc(Oc2ccc(F)cc2F)cc1` [E17, (E)-2-(1-(4-(2,4-Difluorophenoxy)benzylidene)-5-fluoro-2-methyl-1H-inden-3-yl)acetic acid]: the inhibition at 3.3 µM in the test on SW480 (colon cancer) was less than 30%; with HepG2 (liver cancer), no less than 50%; in test [1], less than 30%; in test [2] it was 30 to 50%; with HeLa (cervical cancer) it was 30 to 50%; in test [3], less than 30%. Further, the inhibition at 3.3 µM in test [4] is no less than 50%. Also, the inhibition at 10 µM (with SW480 (colon cancer); in the test on HepG2 (liver cancer); in test [1]; in test [2]; in the test on HeLa (cervical cancer); in test [3]) was no less than 50% each time. Besides, the inhibition at 10 µM in test [4] is no less than 50%. Also, the inhibition at 30 µM (in the test on SW480 (colon cancer); with HepG2 (liver cancer); in test [1]; in test [2]; with HeLa (cervical cancer); in test [3]) was no less than 50% each time. Moreover, the inhibition at 30 µM in test [4] was no less than 50%.

As to `CC1=C(CC(=O)O)c2cc(I)ccc2/C1=C/c1ccc(COCc2ccc(F)cc2)cc1` [E18, (E)-2-(1-(4-(((4-Fluorobenzyl)oxy)methyl)benzylidene)-5-iodo-2-methyl-1H-inden-3-yl)acetic acid], the inhibition at 3.3 µM in the test with SW480 (colon cancer) is less than 30%; in the test with HepG2 (liver cancer), less than 30%; in test [1], no less than 50%; in test [2], less than 30%; in the test on HeLa (cervical cancer), no less than 50%; in test [3] it was less than 30%. The inhibition at 3.3 µM in test [4] was 30 to 50%. The inhibition at 10 µM (in the test with SW480 (colon cancer); with HepG2 (liver cancer); in test [1]; in test [2]; in the test with HeLa (cervical cancer); in test [3]) was no less than 50% in each case. In addition, the inhibition at 10 µM in test [4] was no less than 50%. The inhibition at 30 µM (with SW480 (colon cancer); in the test on HepG2 (liver cancer); in test [1]; in test [2]; in the test on HeLa (cervical cancer); in test [3]) was no less than 50% in each case. Further, the inhibition at 30 µM in test [4] was no less than 50%.

Take `COc1ccc(S(=O)(=O)Cc2ccc(/C=C3\C(C)=C(CC(=O)O)c4cc(F)ccc43)cc2)cc1` [E20, (E)-2-(5-Fluoro-1-(4-(((4-methoxyphenyl)sulfonyl)methyl)benzylidene)-2-methyl-1H-inden-3-yl)acetic acid]: the inhibition at 3.3 µM was 30 to 50% in the test with SW480 (colon cancer); 30 to 50% with HepG2 (liver cancer); 30 to 50% in test [1]; less than 30% in test [2]; less than 30% in the test with HeLa (cervical cancer); less than 30% in test [3]. Moreover, the inhibition at 3.3 µM in test [4] is less than 30%. Moreover, the inhibition at 10 µM in the test with SW480 (colon cancer) is 30 to 50%; in the test with HepG2 (liver cancer), no less than 50%; in test [1], no less than 50%; in test [2], 30 to 50%; with HeLa (cervical cancer), no less than 50%; in test [3], 30 to 50%. For the same compound, in test [4], the inhibition at 10 µM is 30 to 50%. In addition, the inhibition at 30 µM (in the test with SW480 (colon cancer); in the test on HepG2 (liver cancer); in test [1]; in test [2]; in the test on HeLa (cervical cancer); in test [3]) was no less than 50% throughout. In addition, in test [4], the inhibition at 30 µM is no less than 50%.

As to `CC1=C(CC(=O)O)c2cc(F)ccc2/C1=C/c1ccc(Oc2ccc(Cl)c(Cl)c2)cc1` [E21, (E)-2-(1-(4-(3,4-Dichlorophenoxy)benzylidene)-5-fluoro-2-methyl-1H-inden-3-yl)acetic acid], the inhibition at 3.3 µM in the test on SW480 (colon cancer) is 30 to 50%; with HepG2 (liver cancer) it was less than 30%; in test [1] it was no less than 50%; in test [2], no less than 50%; in the test on HeLa (cervical cancer), no less than 50%; in test [3], 30 to 50%. For the same compound, the inhibition at 3.3 µM in test [4] was less than 30%. The inhibition at 10 µM (with SW480 (colon cancer); with HepG2 (liver cancer); in test [1]; in test [2]; with HeLa (cervical cancer); in test [3]) was no less than 50% throughout. In addition, in test [4], the inhibition at 10 µM was no less than 50%. Moreover, the inhibition at 30 µM (in the test on SW480 (colon cancer); in the test with HepG2 (liver cancer); in test [1]; in test [2]; in the test on HeLa (cervical cancer); in test [3]) was no less than 50% throughout. The inhibition at 30 µM in test [4] was no less than 50%.

Take `CC1=C(CC(=O)O)c2cc(F)ccc2/C1=C/c1ccc(-c2ccc(Cl)cc2)cc1` [E22, (E)-2-(1-((4′-Chloro-[1,1′-biphenyl]-4-yl)methylene)-5-fluoro-2-methyl-1H-inden-3-yl)acetic acid]: the inhibition at 3.3 µM in the test on SW480 (colon cancer) was 30 to 50%; in the test with HepG2 (liver cancer), no less than 50%; in test [1], 30 to 50%; in test [2], no less than 50%; in the test on HeLa (cervical cancer), 30 to 50%; in test [3] it was 30 to 50%. The inhibition at 3.3 µM in test [4] was no less than 50%. The inhibition at 10 µM (with SW480 (colon cancer); in the test with HepG2 (liver cancer); in test [1]; in test [2]; in the test with HeLa (cervical cancer); in test [3]) was no less than 50% throughout. The inhibition at 10 µM in test [4] was no less than 50%. For the same compound, the inhibition at 30 µM (with SW480 (colon cancer); in the test with HepG2 (liver cancer); in test [1]; in test [2]; with HeLa (cervical cancer); in test [3]) was no less than 50% in each case. Besides, the inhibition at 30 µM in test [4] was no less than 50%.

For the origin of these results see US20260184663A1, “INDENE COMPOUNDS, PHARMACEUTICAL COMPOSITIONS THEREOF, AND THEIR THERAPEUTIC APPLICATIONS” (NucMito Pharmaceuticals co. Ltd., priority 2022, published 2026).
